Data: patent publication US11807612B2, “Heterocyclic compound and salt thereof, and luminescent substrate composition” (The University of Electro-Communications, priority 2020, dated 2023)

Experiments:
firefly luciferase (Luc) = firefly luciferase (Luc) (Photinus pyralis, UniProt P08659); conditions: firefly luminescence system; background, PTL 1 to 3; cited from earlier work
[1] = target: T1, Ppy luciferase (derived from North American firefly Photinus pyralis) (Photinus pyralis, UniProt P08659); assay: Luminescence spectrum measurement of luminescent substrates with Ppy luciferase, ATP-Mg; assay type: biochemical; conditions: for peak top wavelength of luminescence spectrum: substrate solution 100 μM, 1 mg/mL Ppy luciferase, 200 μM ATP-Mg, KPB pH 8.0, room temperature, 180 seconds, FIG. 1
T1 construct: purchased Promega Corporation E1701
Procedure: The luminescent substrates represented by structural formulae (1-1) and (1-2) that were synthesized as described above, a luminescent substrate represented by the following structural formula (b), and natural firefly luciferin (LH2, produced by Wako Pure Chemical Industries, Ltd.) represented by the following structural formula (d) were each used to measure a luminescence spectrum. Note that the luminescent substrate represented by structural formula (b) was prepared in accordance with Example 1 of JP2014-218456A (PTL 2).
A weak emission fluorescence spectrometer AB-1850 produced by ATTO Corporation was used to measure a luminescence spectrum. Each measured spectrum is a spectrum that has been corrected for detector characteristics (data interval 0.25 nm, measurement range 400 nm to 750 nm).
Recombinant luciferase (QuantiLum® (QuantiLum is a registered trademark in Japan, other countries, or both), catalogue no. E1701) produced by Promega Corporation
After mixing 5 μL of KPB solution (pH 8.0, 500 mM), 5 μL of luminescent substrate solution (100 μM), 5 μL of 1 mg/mL Ppy luciferase solution, and 10 μL of 200 μM ATP-Mg solution at room temperature, luminescence spectrum measurement was performed for 180 seconds using the luminescence spectrum measurement apparatus (AB-1850). The luminescence intensity was compared by the peak top value at this time. The results are illustrated in FIG. 1 and FIG. 2.
FIG. 1 is a luminescence spectrum normalized to give a maximum value for luminescence intensity of 1, and FIG. 2 is a luminescence spectrum illustrating luminescence intensity at each wavelength.

T1 sequence (P08659 whole entry): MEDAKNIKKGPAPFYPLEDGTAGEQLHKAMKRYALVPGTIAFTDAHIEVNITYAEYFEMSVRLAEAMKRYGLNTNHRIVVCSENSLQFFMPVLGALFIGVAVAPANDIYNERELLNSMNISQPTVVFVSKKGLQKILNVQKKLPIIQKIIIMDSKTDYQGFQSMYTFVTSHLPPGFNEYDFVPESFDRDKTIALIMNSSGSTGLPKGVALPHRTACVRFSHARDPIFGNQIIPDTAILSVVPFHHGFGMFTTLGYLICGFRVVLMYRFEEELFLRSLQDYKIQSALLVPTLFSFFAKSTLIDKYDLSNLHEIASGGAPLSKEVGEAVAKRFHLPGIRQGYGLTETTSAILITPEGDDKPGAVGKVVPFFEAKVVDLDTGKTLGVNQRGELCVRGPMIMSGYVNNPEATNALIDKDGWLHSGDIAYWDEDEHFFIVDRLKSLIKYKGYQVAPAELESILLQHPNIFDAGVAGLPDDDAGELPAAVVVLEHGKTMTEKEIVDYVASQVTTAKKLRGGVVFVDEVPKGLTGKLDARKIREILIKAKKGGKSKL
Sequence of firefly luciferase (Luc) (P08659 whole entry): as above

Compound | maximum wavelength of luminescence spectrum / wavelength of emitted light (firefly luciferase (Luc)) | luminescence intensity (peak top value) relative to luminescent substrate of structural formula (b) ([1]; same conditions, FIGS. 1 and 2) | luminescence intensity (peak top value) relative to natural firefly luciferin ([1]; same conditions, FIGS. 1 and 2) | luminescence wavelength compared with luminescent substrate of structural formula (b) ([1]; same conditions, FIGS. 1 and 2) | peak top wavelength of luminescence spectrum [1]
O=C(O)[C@H]1CSC(c2nc3ccc(O)cc3s2)=N1 [natural firefly luciferin, firefly luciferin] | approximately 560 nm |  |  |  | 
CN(C)c1ncc(/C=C/C=C/C2=N[C@@H](C(=O)O)CS2)s1 [structural formula (1-1), (S)-2-((1E,3E)-4-(2-(dimethylamino)thiazol-5-yl)buta-1,3-dien-1-yl)-4,5-dihydrothiazole-4-carboxylic acid] |  | approximately four times higher | approximately half | shorter wavelength | approximately 630 nm
CN(C)c1cnc(/C=C/C=C/C2=N[C@@H](C(=O)O)CS2)s1 [structural formula (1-2), (S)-2-((1E,3E)-4-(5-(dimethylamino)thiazol-2-yl)buta-1,3-dien-1-yl)-4,5-dihydrothiazole-4-carboxylic acid] |  | approximately four times higher | approximately half |  | approximately 680 nm
CN(C)c1ccc(/C=C/C=C/C2=N[C@@H](C(=O)O)CS2)cc1 [structural formula (a)] | roughly 670 nm |  |  |  | 
CN(C)c1ccc(/C=C/C=C/C2=N[C@@H](C(=O)O)CS2)nc1 [structural formula (c)] | roughly 670 nm |  |  |  | 
